{"source": "patent US20230346827A1", "about": "(priority 2020, published 2023)", "key": {"[1]": {"system": "bronchial epithelial cells and HDFn + (TNFα and IL-4)", "experiment": "BioMAP BF4T system", "assay_type": "cell-based, human", "conditions": "annotated relative to vehicle controls", "source_text": "(§1) Cell types and stimuli used in each system are as follows: 3C system [HUVEC + (IL-1β, TNFα and IFNy)], 4H system [HUVEC + (IL-4 and histamine)], LPS system [PBMC and HUVEC + LPS (TLR4 ligand)], SAg system [PBMC and HUVEC + TCR ligands], BT system [CD19+ B cells and PBMC + (α-IgM and TCR ligands)], BF4T system [bronchial epithelial cells and HDFn + (TNFα and IL-4)], BE3C system [bronchial epithelial cells + (IL-1β, TNFα and IFNy)], CASM3C system [coronary artery smooth muscle cells + (IL-1 β, TNFα and IFNy)], HDF3CGF system [HDFn + (IL-1β, TNFα, IFNy, EGF, bFGF and PDGF-BB)], KF3CT system [keratinocytes and HDFn + (IL-1β, TNFα, IFNy and TGFβ)], MyoF system [differentiated lung myofibroblasts + (TNFα and TGFβ)] and Mphg system [HUVEC and M1 macrophages + Zymosan (TLR2 ligand)].\n(§2) Systems are derived from either single cell types or co-culture systems. Adherent cell types are cultured in 96 or 384-well plates until confluence, followed by the addition of PBMC (SAg and LPS systems). […] Soluble factors from supernatants are quantified using either HTRF® detection, bead-based multiplex immunoassay or capture ELISA. Overt adverse effects of test agents on cell proliferation and viability (cytotoxicity) are detected by sulforhodamine B (SRB) staining, for adherent cells, and alamarBlue® reduction for cells in suspension. […]"}, "[2]": {"system": "coronary artery smooth muscle cells + (IL-1 β, TNFα and IFNy)", "experiment": "BioMAP CASM3C system", "assay_type": "cell-based, human", "conditions": "annotated relative to vehicle controls", "source_text": "as §1, §2"}, "human purified monocytes": {"system": "human purified monocytes", "experiment": "Stimulated IL-6 release from human purified monocytes (ELISA)", "assay_type": "cell-based", "conditions": "24 h, LMW-DS 60-600 µg/ml, heparin 2.0-20 µg/ml, dexamethasone 3.0 µM", "experimental": "Peripheral blood mononuclear cells (PBMC) were isolated from healthy donors through Ficoll-Paque PLUS (GE Healthcare; 11778538) density centrifugation. Monocytes were purified using the EasySep™ human monocyte enrichment kit (StemCell) that purifies monocytes ‘untouched’ to maintain their phenotype.\nMonocytes were cultured in the absence (unstimulated PBS vehicle controls) or presence of stimulation (LPS or peptidoglycan) in the absence (vehicle) or presence of LMW-DS (Tikomed AB, Viken, Sweden, WO 2016/076780; three concentrations; top concentration 600 µg/ml, 200 µg/ml and 60 µg/ml), heparin (2.0, 6.0 or 20 µg/ml; equivalent to 0.406, 1.218 and 4.06 units/ml; Sigma Aldrich) or dexamethasone (3.0 µM; Sigma Aldrich) for 24 hours at 37° C., 5% CO2. Following centrifugation, cell culture supernatants were removed and stored at -20° C. awaiting analysis for IL-6 by ELISA. Levels of IL-6 were quantified in the supernatant by ELISA (R&D systems) according to manufacturer’s instructions."}}, "data": [{"substance": "sodium salt of dextran sulfate [LMW-DS]", "values": [{"measurement": "Increased biomarker activity", "setting": "[1]", "value": "Eot3"}, {"measurement": "Decreased biomarker activity", "setting": "[2]", "value": "VCAM-1, MIG"}, {"measurement": "LPS-stimulated IL-6 release", "setting": "human purified monocytes; LPS 0.01 ng/ml", "value": "concentration dependent statistically significant inhibition"}, {"measurement": "peptidoglycan-stimulated IL-6 release", "setting": "human purified monocytes; peptidoglycan 30 ng/ml", "value": "concentration dependent statistically significant increase"}]}]}
